The values below are quoted from earlier work in patent US7304085B2, “Nitrogen-containing heteroaryl derivatives” (Genelabs Technologies, Inc., priority 2003, dated 2007).

In one data set the test system is HCV. Conditions: treatment of HCV, long term efficacy.

Take `NC(=O)c1ncn([C@@H]2O[C@H](CO)[C@@H](O)[C@H]2O)n1` [Ribavirin, 1-β-D-ribofuranosyl-1H-1,2,4-triazole-3-carboxamide]: the “patients with significant hemolysis” value (currently recommended doses) was 10-20%. Besides, the teratogenicity / embryotoxicity entry (in vivo) was “teratogenic and embryotoxic”. Turning to interferon, the response rate entry in the data set on HCV is “about 25%”.
